pIC50, pKi: −log10 of the molar value.
Legend:
Format in all cases: biochemical
[1] = target: T1, Human PKK (Homo sapiens, UniProt P03952); test: Inhibition of PKK using an endpoint assay (human PKK); conditions: fluorogenic substrate H-Pro-Phe-Arg-AMC, 1 h room temperature, method names human or rat PKK, table does not say which
T1 construct: purchased Enzyme Research Laboratories
How it was run: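 Human PKK inhibition measured in 100 mM Tris, 150 mM NaCl, pH 7.8, 0.1% BSA, 0.05% Tween20, 1% DMSO. Endpoint format: reaction stopped with PPACK II at 1 μM final, fluorescence read at 355 nm excitation/460 nm emission.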

[2] = target: T2, PKK in kaolin activated human platelet poor plasma (Homo sapiens, UniProt P03952); test: Inhibition of PKK in kaolin activated human PPP; conditions: 25-750 μg/mL kaolin, global fit, text b200 calls the values IC90;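 note: readout is the rate of fluorogenic substrate cleavage in rfu per min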
T2 construct: Platelet poor plasma (PPP) obtained from human wholeblood; from tissue
T2 sequence (P03952 391-638 limits assumed): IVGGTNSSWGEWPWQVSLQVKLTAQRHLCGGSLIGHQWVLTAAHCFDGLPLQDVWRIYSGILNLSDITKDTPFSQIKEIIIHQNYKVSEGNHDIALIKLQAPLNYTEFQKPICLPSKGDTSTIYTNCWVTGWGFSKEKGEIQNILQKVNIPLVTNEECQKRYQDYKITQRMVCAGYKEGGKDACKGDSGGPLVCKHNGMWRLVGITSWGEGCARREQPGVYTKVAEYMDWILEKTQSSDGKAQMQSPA
T2 sequence (P03952 20-390 limits assumed): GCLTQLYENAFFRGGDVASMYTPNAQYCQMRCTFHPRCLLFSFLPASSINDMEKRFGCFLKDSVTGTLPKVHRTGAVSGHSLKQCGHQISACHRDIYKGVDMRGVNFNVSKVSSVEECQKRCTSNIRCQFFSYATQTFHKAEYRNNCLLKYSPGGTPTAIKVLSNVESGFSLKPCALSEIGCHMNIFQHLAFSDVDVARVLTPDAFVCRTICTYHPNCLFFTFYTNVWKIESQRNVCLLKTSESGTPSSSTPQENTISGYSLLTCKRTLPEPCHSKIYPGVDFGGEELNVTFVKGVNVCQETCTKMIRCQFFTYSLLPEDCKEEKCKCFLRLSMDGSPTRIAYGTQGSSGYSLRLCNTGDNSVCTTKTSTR
Description: Platelet poor plasma (PPP) obtained from human wholeblood, anticoagulated with Na-Citrate, is incubated with various concentrations of the test compound together with either 25, 75, 250, or 750 μg/mL kaolin in assay buffer for 20 min at 37° C. such that for each kaolin dose used a concentration response is obtained for the test compound.

[3] = target: T3, human TK1 (Homo sapiens, UniProt P06870); test: Inhibition of TK1 (Ki); conditions: activated human TK1, substrate H-Pro-Phe-Arg-AMC, 24° C.
T3 construct: purchased R&D Systems
T3 sequence (P06870 25-262): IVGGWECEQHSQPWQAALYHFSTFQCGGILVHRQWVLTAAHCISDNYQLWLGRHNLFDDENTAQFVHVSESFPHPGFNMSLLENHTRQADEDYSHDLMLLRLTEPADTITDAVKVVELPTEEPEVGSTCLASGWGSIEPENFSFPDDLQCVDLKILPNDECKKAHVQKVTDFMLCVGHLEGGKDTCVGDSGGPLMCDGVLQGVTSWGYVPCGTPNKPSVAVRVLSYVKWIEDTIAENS
Description: The ability of compounds of formula (I) to inhibit plasma kallikrein (PKK), Factor XIIa (FXIIa), Factor XIa (FXIa), Factor Xa (FXa), Factor IIa (alpha-thrombin; FIIa), plasmin, trypsin, tissue kallikrein 1 (TK1), Factor VIIa (FVIIa), or FVIIa complexed with Tissue Factor, phospholipids and CaCl2 (FVIIa/TF/PL/CaCl2) is determined using the following biochemical assays in assay buffer (100 mM Tris, 150 mM NaCL, adjusted to a pH of 7.8 with HCl, and containing 0.1% (w/v) BSA and 0.05% (v/v) Tween20) in the presence of 1% (v/v) DMSO:
Prior to the assay, human TK1 (R&D Systems) is activated by incubation with human trypsin (Calbiochem) in a 1:10,000 ratio for 15 min at 37° C. For assaying TK1 inhibitory activity, activated TK1 (31.25 nM or 1 U/mL) is incubated at 24° C. with 0.1 mM fluorogenic substrate H-Pro-Phe-Arg-AMC (11295 from Bachem) and various concentrations of the test compound in assay buffer. Measurements are performed in a kinetic interval every 2nd minute for 16 min using a Spectramax M5 (Molecular Devices) with the following settings of the wavelength excitation of 350 nm and wavelength emission of 450 nm.
The pIC50 values are then fitted using a four-parametric fitting procedure using GraphPad Prism (version 6; GraphPad Software, Inc.). Respective Ki values are obtained by correction of the IC50 values for the respective KM value of the used substrate (see Table A for the obtained KM values of the used substrates) using the following formula:
[formula] Where the IC50 is in molar and the KM value in mM.

T1 sequence (P03952 20-390 limits assumed): as the sequence (P03952 20-390 limits assumed) above
T1 sequence (P03952 391-638 limits assumed): as the sequence (P03952 391-638 limits assumed) above

SMILES	pIC50 [1]	pIC50 [2]	pKi [3]
Cc1nc(N2CC3C(C2)C3(F)F)ccc1Cn1cnc(C(=O)N[C@@H]2CCc3c2ncn3C)c1 (stereo partly drawn) [Example 24, 1-[(6-{6,6-Difluoro-3-azabicyclo[3.1.0]hexan-3-yl}-2-methylpyridin-3-yl)methyl]-N-[(4R)-1-methyl-1H,4H,5H,6H-cyclopenta[d]imidazol-4-yl]-1H-imidazole-4-carboxamide]	9.00	6.74	< 5.00
Cc1nc(N2CC3C(C2)C3(F)F)ccc1Cn1cc(C(=O)N[C@@H]2CCc3c2ncn3C)nn1 (stereo partly drawn) [Example 27, 1-[(6-{6,6-Difluoro-3-azabicyclo[3.1.0]hexan-3-yl}-2-methylpyridin-3-yl)methyl]-N-[(4R)-1-methyl-1H,4H,5H,6H-cyclopenta[d]imidazol-4-yl]-1H-1,2,3-triazole-4-carboxamide]	9.05	6.69	< 5.00
CCc1nc(N2CC3C(C2)C3(F)F)ccc1Cn1cc(C(=O)N[C@@H]2CCc3c2ncn3C)cn1 (stereo partly drawn) [Example 36, 1-[(6-{6,6-Difluoro-3-azabicyclo[3.1.0]hexan-3-yl}-2-ethylpyridin-3-yl)methyl]-N-[(4R)-1-methyl-1H,4H,5H,6H-cyclopenta[d]imidazol-4-yl]-1H-pyrazole-4-carboxamide]	9.30	6.74	< 5.00
Cn1cnc2c1CC[C@H]2NC(=O)c1cn(Cc2ccc(N3CC4(CC4)C3)nc2C(F)F)cn1 [Example 47, 1-[(6-{5-Azaspiro[2.3]hexan-5-yl}-2-(difluoromethyl)-pyridin-3-yl)methyl]-N-[(4R)-1-methyl-1H,4H,5H,6H-cyclopenta[d]imidazol-4-yl]-1H-imidazole-4-carboxamide]	9.10	6.76	< 5.00
COCc1nc(N2CC3CC3C2)ccc1Cn1cc(C(=O)N[C@@H]2CCc3c2ncn3C)cn1 (stereo partly drawn) [Example 49, 1-[(6-{3-Azabicyclo[3.1.0]hexan-3-yl}-2-(methoxymethyl)-pyridin-3-yl)methyl]-N-[(4R)-1-methyl-1H,4H,5H,6H-cyclopenta[d]imidazol-4-yl]-1H-pyrazole-4-carboxamide]	8.60	6.60	< 5.00
CCc1nc(N2CC3(CC3)C2)ccc1Cn1cc(C(=O)N[C@@H]2CCc3c2ncn3C)cn1 [Example 51, 1-[(6-{5-Azaspiro[2.3]hexan-5-yl}-2-ethylpyridin-3-yl)methyl]-N-[(4R)-1-methyl-1H,4H,5H,6H-cyclopenta[d]imidazol-4-yl]-1H-pyrazole-4-carboxamide]	9.00	6.67	< 5.00
Cn1cnc2c1CC[C@H]2NC(=O)c1cnn(Cc2ccc(N3CC4(CC4)C3)nc2C(F)F)c1 [Example 52, 1-[(6-{5-Azaspiro[2.3]hexan-5-yl}-2-(difluoromethyl)-pyridin-3-yl)methyl]-N-[(4R)-1-methyl-1H,4H,5H,6H-cyclopenta[d]imidazol-4-yl]-1H-pyrazole-4-carboxamide]	8.96	6.81	< 5.00
CCc1nc(N2CC3CC3C2)ccc1Cn1cnc(C(=O)N[C@@H]2CCc3c2ncn3C)c1 (stereo partly drawn) [Example 75, 1-[(6-{3-Azabicyclo[3.1.0]hexan-3-yl}-2-ethylpyridin-3-yl)methyl]-N-[(4R)-1-methyl-1H,4H,5H,6H-cyclopenta[d]imidazol-4-yl]-1H-imidazole-4-carboxamide]	9.30	6.72	< 5.00
Cn1cnc2c1CC[C@H]2NC(=O)c1cnn(Cc2ccc(N3CC4C(C3)C4(F)F)nc2)c1 (stereo partly drawn) [Example 80, 1-[(6-{6,6-Difluoro-3-azabicyclo[3.1.0]hexan-3-yl}pyridin-3-yl)methyl]-N-[(4R)-1-methyl-1H,4H,5H,6H-cyclopenta[d]imidazol-4-yl]-1H-pyrazole-4-carboxamide]	8.33	6.31	< 5.00
Cn1cnc2c1CC[C@H]2NC(=O)c1cnn(Cc2ccc(N3CC4CC4C3)nc2CO)c1 (stereo partly drawn) [Example 86, 1-[(6-{3-Azabicyclo[3.1.0]hexan-3-yl}-2-(hydroxymethyl)-pyridin-3-yl)methyl]-N-[(4R)-1-methyl-1H,4H,5H,6H-cyclopenta[d]imidazol-4-yl]-1H-pyrazole-4-carboxamide]	8.92	6.22	< 5.00
Cc1nc(N2CC3C(C2)C3(F)F)ccc1Cn1cc(C(=O)N[C@@H]2CCc3c2ncn3C)cn1 (stereo partly drawn) [Example 90, 1-[(6-{6,6-Difluoro-3-azabicyclo[3.1.0]hexan-3-yl}-2-methylpyridin-3-yl)methyl]-N-[(4R)-1-methyl-1H,4H,5H,6H-cyclopenta[d]imidazol-4-yl]-1H-pyrazole-4-carboxamide]	9.15	6.90	< 5.00
Cc1nc(N2CC3C(C2)C3(F)F)ccc1Cn1cc(C(=O)N[C@@H]2CCc3c2ncn3C)c(CO)n1 (stereo partly drawn) [Example 107, 1-[(6-{6,6-Difluoro-3-azabicyclo[3.1.0]hexan-3-yl}-2-methylpyridin-3-yl)methyl]-3-(hydroxymethyl)-N-[(4R)-1-methyl-1H,4H,5H,6H-cyclopenta[d]imidazol-4-yl]-1H-pyrazole-4-carboxamide]	9.00	6.49	< 5.00
Cn1cnc2c1CC[C@H]2NC(=O)c1cn(Cc2ccc(N3CC4CC4C3)nc2F)cn1 (stereo partly drawn) [Example 108, 1-[(6-{3-Azabicyclo[3.1.0]hexan-3-yl}-2-fluoropyridin-3-yl)methyl]-N-[(4R)-1-methyl-1H,4H,5H,6H-cyclopenta[d]imidazol-4-yl]-1H-imidazole-4-carboxamide]	8.77	6.33	< 5.00
CCCc1nc(N2CC3CC3C2)ccc1Cn1cnc(C(=O)N[C@@H]2CCc3c2ncn3C)c1 (stereo partly drawn) [Example 110, 1-[(6-{3-Azabicyclo[3.1.0]hexan-3-yl}-2-propylpyridin-3-yl)methyl]-N-[(4R)-1-methyl-1H,4H,5H,6H-cyclopenta[d]imidazol-4-yl]-1H-imidazole-4-carboxamide]	9.05	6.11	< 5.00
Cn1cnc2c1CC[C@H]2NC(=O)c1cnn(Cc2cnc(N3CC4CC4C3)c(C#N)c2)c1 (stereo partly drawn) [Example 114, 1-[(6-{3-Azabicyclo[3.1.0]hexan-3-yl}-5-cyanopyridin-3-yl)methyl]-N-[(4R)-1-methyl-1H,4H,5H,6H-cyclopenta[d]imidazol-4-yl]-1H-pyrazole-4-carboxamide]	8.74	4.83	< 5.00
Cn1cnc2c1CC[C@H]2NC(=O)c1cnn(Cc2cnc(N3CC4CC4C3)cc2C(F)(F)F)c1 (stereo partly drawn) [Example 115, 1-[(6-{3-Azabicyclo[3.1.0]hexan-3-yl}-4-(trifluoromethyl)pyridin-3-yl)methyl]-N-[(4R)-1-methyl-1H,4H,5H,6H-cyclopenta[d]imidazol-4-yl]-1H-pyrazole-4-carboxamide]	8.39	5.58	< 5.00
Cc1c(Cn2cc(C(=O)N[C@@H]3CCc4c3ncn4C)cn2)cnc(N2CC3CC3C2)c1C#N (stereo partly drawn) [Example 116, 1-[(6-{3-Azabicyclo[3.1.0]hexan-3-yl}-5-cyano-4-methylpyridin-3-yl)methyl]-N-[(4R)-1-methyl-1H,4H,5H,6H-cyclopenta[d]imidazol-4-yl]-1H-pyrazole-4-carboxamide]	9.40	6.56	6.06
Cn1cnc2c1CC[C@H]2NC(=O)c1cnn(Cc2ccc(N3CC4CC4C3)nc2C2CC2)c1 (stereo partly drawn) [Example 117, 1-[(6-{3-Azabicyclo[3.1.0]hexan-3-yl}-2-cyclopropylpyridin-3-yl)methyl]-N-[(4R)-1-methyl-1H,4H,5H,6H-cyclopenta[d]imidazol-4-yl]-1H-pyrazole-4-carboxamide]	8.66	5.81	< 5.00
Cc1c(Cn2cnc(C(=O)N[C@@H]3CCc4c3ncn4C)c2)cnc(N2CC3CC3C2)c1C#N (stereo partly drawn) [Example 118, 1-[(6-{3-Azabicyclo[3.1.0]hexan-3-yl}-5-cyano-4-methylpyridin-3-yl)methyl]-N-[(4R)-1-methyl-1H,4H,5H,6H-cyclopenta[d]imidazol-4-yl]-1H-imidazole-4-carboxamide]	9.52	6.80	< 5.00
